Measurements: patent EP2526945A1, “New CRTH2 Antagonists” (Almirall, S.A., priority 2011, dated 2012)

Biological target: T1, CRTh2 receptor (Homo sapiens, UniProt Q9Y5Y4)
T1 construct: expressed in transfected cells; host or cells: CHO.K1 cells (membranes)
T1 sequence (Q9Y5Y4 1-395): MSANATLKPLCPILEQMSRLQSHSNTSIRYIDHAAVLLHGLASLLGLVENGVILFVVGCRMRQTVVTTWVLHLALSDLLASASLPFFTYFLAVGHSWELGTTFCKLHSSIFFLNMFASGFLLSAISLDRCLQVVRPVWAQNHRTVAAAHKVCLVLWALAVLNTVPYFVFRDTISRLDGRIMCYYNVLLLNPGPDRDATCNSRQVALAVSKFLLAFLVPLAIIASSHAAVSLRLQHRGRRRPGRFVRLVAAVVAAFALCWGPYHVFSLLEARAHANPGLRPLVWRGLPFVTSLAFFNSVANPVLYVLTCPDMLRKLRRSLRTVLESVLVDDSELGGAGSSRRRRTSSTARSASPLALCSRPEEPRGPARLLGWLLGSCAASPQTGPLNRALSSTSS
Assay: CRTh2 GTPγS antagonism binding assay
Type: biochemical
Settings: membranes from CHO.K1 cells stably overexpressing the CRTh2 receptor; PGD2 at 50 nM (EC80); [35S]-GTPγS as radioligand; read-out: GTPγ Binding
Experimental: CRTh2 GTPγS antagonism binding assay
The assay is performed using membranes obtained from CHO.K1 cells stably overexpressing the CRTh2 receptor and [^35S]-GTPγS as radioligand. Assay is performed pre-incubating 4-8 µg of membranes per well with the compound to be tested for 1 h, followed by incubation with PGD2 at 50 nM (EC80), 0.1 nM [^35S]-GTPγS in incubation buffer (20 mM HEPES, 10 mM MgCl2, 100 mM NaCl, 10 µM GDP, 10 µg/ml Saponine and 0.2% BSA) for 2 h at room temperature. The reaction is terminated by filtering in GF/C plates pre-treated with 20 mM HEPES, 10 mM MgCl2, 100 mM NaCl and washing 6 times with wash buffer (20 mM NaH2PO4, 20 mM Na2HPO4). After washing, plates are dried and scintillation buffer Optiphase added. The radioactivity retained in the filter is counted using a Microbeta liquid scintillation counter.

IC50	SMILES
4.5 nM	Cc1c(Cc2ccccc2S(=O)(=O)c2ccccc2)c2c(n1CC(=O)O)CC(C)(C)NC2=O [Example 58, {2,6,6-Trimethyl-4-oxo-3-[2-(phenylsulfonyl)benzyl]-4,5,6,7-tetrahydro-1H-pyrrolo[3,2-c]pyridin-1-yl}acetic acid]
5 nM	Cc1c(Cc2ccccc2S(=O)(=O)c2ccc(F)cc2)c2c(n1CC(=O)O)CC(C)(C)NC2=O [Example 60, (3-{2-[(4-Fluorophenyl)sulfonyl]benzyl}-2,6,6-trimethyl-4-oxo-4,5,6,7-tetrahydro-1 H-pyrrolo[3,2-c]pyridin-1-yl)acetic acid]
4.8 nM	COc1ccc(S(=O)(=O)c2ccc(F)cc2)c(Cc2c3c(n(CC(=O)O)c2C)CC(C)(C)NC3=O)c1 [Example 62, (3-{2-[(4-Fluorophenyl)sulfonyl]-5-methoxybenzyl}-2,6,6-trimethyl-4-oxo-4,5,6,7-tetrahydro-1H-pyrrolo[3,2-c]pyridin-1-yl)acetic acid]
5.8 nM	Cc1c(Cc2ccccc2S(=O)(=O)c2ccccc2)c2c(n1CC(=O)O)CCN(C(C)C(F)(F)F)C2=O (stereo not drawn) [Example 71, [2-Methyl-4-oxo-3-[2-(phenylsulfonyl)benzyl]-5-(2,2,2-trifluoro-1-methylethyl)-4,5,6,7-tetrahydro-1H-pyrrolo[3,2-c]pyridin-1-yl]acetic acid]
8.6 nM	Cc1c(Cc2ccccc2S(=O)(=O)c2ccccc2)c2c(=O)[nH]ccc2n1CC(=O)O [Example 72, {2-Methyl-4-oxo-3-[2-(phenylsulfonyl)benzyl]-4,5-dihydro-1H-pyrrolo[3,2-c]pyridin-1-yl}acetic acid]
4.9 nM	Cc1c(Cc2ccccc2S(=O)(=O)c2ccccc2)c2c(=O)n(C)ccc2n1CC(=O)O [Example 75, {2,5-Dimethyl-4-oxo-3-[2-(phenylsulfonyl)benzyl]-4,5-dihydro-1H-pyrrolo[3,2-c]pyridin-1-yl}acetic acid]
